Values quoted from earlier work as cited in patent publication US12268682B2, “Anticancer drug FL118 formulation for treatment of human cancer” (CANGET BIOTEKPHARMA, LLC, priority 2019, dated 2025).

Columns and labels:
[1] = tested on: cancer stem cells (CSCs); conditions: cited from earlier work
[2] = tested on: cancer cell growth; conditions: cited from earlier work

CC[C@@]1(O)C(=O)OCc2c1cc1n(c2=O)Cc2cc3cc4c(cc3nc2-1)OCO4 [FL118]
expression of CSC markers (ABCG2, ALDH1A1, Oct4) [1]: downregulates | invasive ability of CSCs [1]: effectively decreases | concentration range for inhibition of cancer cell growth [2]: high pM to low nM range
